The values that follow come from ChEMBL document CHEMBL3132769, “Fragment growing to retain or alter the selectivity of anchored kinase hinge-binding fragments” (Medchemcomm, 2014).

The species entered for one assay is Homo sapiens. The conditions noted are these: 0.1 uM.
Assay [1] concerns the target T1, Serine/threonine-protein kinase DCLK2 (Homo sapiens) (UniProt Q8N568).
T1 sequence (whole entry): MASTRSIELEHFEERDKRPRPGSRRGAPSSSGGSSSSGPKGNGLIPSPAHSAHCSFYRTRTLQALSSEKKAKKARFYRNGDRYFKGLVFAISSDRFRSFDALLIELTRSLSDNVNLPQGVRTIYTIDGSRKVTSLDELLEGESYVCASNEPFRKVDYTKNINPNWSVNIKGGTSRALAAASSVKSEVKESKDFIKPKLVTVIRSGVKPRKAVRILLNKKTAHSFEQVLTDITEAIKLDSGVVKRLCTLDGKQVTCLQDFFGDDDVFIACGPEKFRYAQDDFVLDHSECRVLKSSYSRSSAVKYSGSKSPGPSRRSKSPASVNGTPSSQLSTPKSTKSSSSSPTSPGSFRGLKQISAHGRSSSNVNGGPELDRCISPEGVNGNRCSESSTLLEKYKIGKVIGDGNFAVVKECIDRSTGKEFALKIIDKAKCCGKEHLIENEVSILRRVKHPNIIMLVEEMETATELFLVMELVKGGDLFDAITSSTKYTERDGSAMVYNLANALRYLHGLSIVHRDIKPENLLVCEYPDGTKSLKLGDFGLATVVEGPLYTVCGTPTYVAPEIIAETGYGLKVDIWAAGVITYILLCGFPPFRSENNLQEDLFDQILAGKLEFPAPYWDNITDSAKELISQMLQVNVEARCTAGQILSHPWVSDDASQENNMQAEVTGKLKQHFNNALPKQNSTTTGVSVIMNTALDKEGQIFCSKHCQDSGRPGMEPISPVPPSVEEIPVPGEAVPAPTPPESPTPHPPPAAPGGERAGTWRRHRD
In words: Inhibition of human full length DCAMKL2 expressed in baculovirus assessed as substrate phosphorylation using fluorescence-labelled peptides as substrate at 95 uM after 90 mins by microfluidic peptide phosphorylation assay.

Assay [2] concerns the target Serine/threonine-protein kinase Chk2 (Homo sapiens) (UniProt O96017). In words: Inhibition of human full length CHK2 expressed in baculovirus assessed as substrate phosphorylation using fluorescence-labelled peptides as substrate at 95 uM after 90 mins by microfluidic peptide phosphorylation assay.
Assay [3] concerns the target RAF proto-oncogene serine/threonine-protein kinase (Homo sapiens) (UniProt P04049). In words: Inhibition of human truncated c-Raf expressed in baculovirus assessed as substrate phosphorylation using fluorescence-labelled peptides as substrate at 8 uM after 90 mins by microfluidic peptide phosphorylation assay.
In assay [4] the target is Insulin-like growth factor 1 receptor (Homo sapiens) (UniProt P08069). In words: Inhibition of human IGF1R catalytic domain expressed in baculovirus assessed as substrate phosphorylation using fluorescence-labelled peptides as substrate at 8 uM after 90 mins by microfluidic peptide phosphorylation assay.
For assay [5], the target named is T2, Protein kinase C epsilon type (Homo sapiens) (UniProt Q02156).
T2 sequence (whole entry): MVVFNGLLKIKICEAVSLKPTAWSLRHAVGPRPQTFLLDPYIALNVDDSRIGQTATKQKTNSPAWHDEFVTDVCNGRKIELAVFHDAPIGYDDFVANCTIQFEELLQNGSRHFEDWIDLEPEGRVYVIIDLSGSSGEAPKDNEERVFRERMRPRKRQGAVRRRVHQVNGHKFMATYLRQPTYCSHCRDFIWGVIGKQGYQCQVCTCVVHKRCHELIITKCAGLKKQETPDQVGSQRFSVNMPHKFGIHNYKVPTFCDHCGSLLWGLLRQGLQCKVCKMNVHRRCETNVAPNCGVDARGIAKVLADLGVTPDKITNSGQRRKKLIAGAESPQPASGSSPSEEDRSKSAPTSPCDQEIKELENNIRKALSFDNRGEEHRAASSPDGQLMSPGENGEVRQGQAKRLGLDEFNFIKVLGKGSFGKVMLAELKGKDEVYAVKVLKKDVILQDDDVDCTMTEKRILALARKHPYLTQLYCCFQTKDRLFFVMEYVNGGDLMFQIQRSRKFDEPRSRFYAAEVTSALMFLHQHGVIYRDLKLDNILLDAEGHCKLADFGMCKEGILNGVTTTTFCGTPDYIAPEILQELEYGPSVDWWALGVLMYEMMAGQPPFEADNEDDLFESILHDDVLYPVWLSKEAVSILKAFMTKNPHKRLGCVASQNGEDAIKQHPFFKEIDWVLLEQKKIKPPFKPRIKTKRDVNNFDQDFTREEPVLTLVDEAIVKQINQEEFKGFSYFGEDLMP
In words: Inhibition of human truncated PKC epsilon expressed in baculovirus assessed as substrate phosphorylation using fluorescence-labelled peptides as substrate at 8 uM after 90 mins by microfluidic peptide phosphorylation assay.

Assay [6] has as its target T3, Calcium/calmodulin-dependent protein kinase type IV (Homo sapiens) (UniProt Q16566).
T3 sequence (whole entry): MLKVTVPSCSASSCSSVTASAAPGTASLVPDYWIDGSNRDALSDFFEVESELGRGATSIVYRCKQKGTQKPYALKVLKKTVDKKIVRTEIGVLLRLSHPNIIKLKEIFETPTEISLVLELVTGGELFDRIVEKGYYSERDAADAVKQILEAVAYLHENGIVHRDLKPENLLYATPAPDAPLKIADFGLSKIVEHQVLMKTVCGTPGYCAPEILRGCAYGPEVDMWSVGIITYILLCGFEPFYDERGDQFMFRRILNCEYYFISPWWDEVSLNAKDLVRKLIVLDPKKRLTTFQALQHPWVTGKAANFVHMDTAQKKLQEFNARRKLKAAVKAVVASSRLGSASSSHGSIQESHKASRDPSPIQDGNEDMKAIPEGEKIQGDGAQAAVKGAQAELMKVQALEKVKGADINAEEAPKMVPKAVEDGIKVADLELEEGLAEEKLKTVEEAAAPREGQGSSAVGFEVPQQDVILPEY
In words: Inhibition of human full length CAMK4 expressed in baculovirus assessed as substrate phosphorylation using fluorescence-labelled peptides as substrate at 8 uM after 90 mins by microfluidic peptide phosphorylation assay.

Assay [7] has as its target Calcium/calmodulin-dependent protein kinase type II subunit delta (Homo sapiens) (UniProt Q13557). In words: Inhibition of human full length CAMK2D expressed in baculovirus assessed as substrate phosphorylation using fluorescence-labelled peptides as substrate at 8 uM after 90 mins by microfluidic peptide phosphorylation assay.
In assay [8] the target is Ribosomal protein S6 kinase alpha-5 (Homo sapiens) (UniProt O75582). In words: Inhibition of human full length MSK1 expressed in baculovirus assessed as substrate phosphorylation using fluorescence-labelled peptides as substrate at 70 uM after 90 mins by microfluidic peptide phosphorylation assay.
The target in assay [9] is Ribosomal protein S6 kinase alpha-1 (Homo sapiens) (UniProt Q15418). In words: Inhibition of human full length RSK1 expressed in baculovirus assessed as substrate phosphorylation using fluorescence-labelled peptides as substrate at […] after 90 mins by microfluidic peptide phosphorylation assay.
Assay [10] has as its target Glycogen synthase kinase-3 beta (Homo sapiens) (UniProt P49841). In words: Inhibition of human full length GSK-3 beta expressed in baculovirus assessed as substrate phosphorylation using fluorescence-labelled peptides as substrate at 1000 uM after 90 mins by microfluidic peptide phosphorylation assay.

Sequence of RAF proto-oncogene serine/threonine-protein kinase (Homo sapiens) (P04049 whole entry, the tested form may be a part): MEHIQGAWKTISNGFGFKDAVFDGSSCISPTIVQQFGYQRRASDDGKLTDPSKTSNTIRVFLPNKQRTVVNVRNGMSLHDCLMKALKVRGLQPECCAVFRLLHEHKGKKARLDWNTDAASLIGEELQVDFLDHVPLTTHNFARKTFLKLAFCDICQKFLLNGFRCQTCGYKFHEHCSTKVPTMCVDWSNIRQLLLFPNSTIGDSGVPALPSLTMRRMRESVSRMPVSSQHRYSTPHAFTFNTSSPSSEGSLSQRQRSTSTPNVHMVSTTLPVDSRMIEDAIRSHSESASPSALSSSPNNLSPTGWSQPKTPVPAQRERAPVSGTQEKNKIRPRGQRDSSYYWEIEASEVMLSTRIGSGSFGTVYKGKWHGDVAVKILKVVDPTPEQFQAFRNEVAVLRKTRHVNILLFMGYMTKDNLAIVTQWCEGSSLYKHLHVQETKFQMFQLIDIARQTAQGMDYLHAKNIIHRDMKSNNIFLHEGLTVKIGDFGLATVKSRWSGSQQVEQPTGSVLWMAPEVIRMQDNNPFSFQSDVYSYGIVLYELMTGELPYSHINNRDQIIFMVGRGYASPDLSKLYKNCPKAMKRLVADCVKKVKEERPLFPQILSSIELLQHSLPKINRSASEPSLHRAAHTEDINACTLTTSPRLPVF
Sequence of Ribosomal protein S6 kinase alpha-1 (Homo sapiens) (Q15418 whole entry): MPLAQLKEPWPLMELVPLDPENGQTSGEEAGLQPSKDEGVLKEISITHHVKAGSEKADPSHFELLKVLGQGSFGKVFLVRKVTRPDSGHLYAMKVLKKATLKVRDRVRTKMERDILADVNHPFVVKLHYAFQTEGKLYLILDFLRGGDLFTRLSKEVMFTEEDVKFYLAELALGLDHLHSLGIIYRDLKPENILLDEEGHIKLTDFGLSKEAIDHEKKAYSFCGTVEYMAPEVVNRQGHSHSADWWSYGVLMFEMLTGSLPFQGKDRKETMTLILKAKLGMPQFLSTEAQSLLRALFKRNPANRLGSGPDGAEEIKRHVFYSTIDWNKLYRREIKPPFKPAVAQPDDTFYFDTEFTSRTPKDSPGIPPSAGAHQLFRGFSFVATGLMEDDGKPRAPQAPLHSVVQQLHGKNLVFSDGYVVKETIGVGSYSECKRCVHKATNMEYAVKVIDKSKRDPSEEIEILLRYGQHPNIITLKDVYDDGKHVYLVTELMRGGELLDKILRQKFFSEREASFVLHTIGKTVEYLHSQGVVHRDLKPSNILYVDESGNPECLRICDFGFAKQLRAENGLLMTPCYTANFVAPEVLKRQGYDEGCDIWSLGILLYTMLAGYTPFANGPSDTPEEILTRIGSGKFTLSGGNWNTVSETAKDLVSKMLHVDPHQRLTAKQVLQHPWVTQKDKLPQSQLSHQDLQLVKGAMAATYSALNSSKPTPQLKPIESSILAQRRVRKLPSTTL
Sequence of Ribosomal protein S6 kinase alpha-5 (Homo sapiens) (O75582 whole entry, looked up): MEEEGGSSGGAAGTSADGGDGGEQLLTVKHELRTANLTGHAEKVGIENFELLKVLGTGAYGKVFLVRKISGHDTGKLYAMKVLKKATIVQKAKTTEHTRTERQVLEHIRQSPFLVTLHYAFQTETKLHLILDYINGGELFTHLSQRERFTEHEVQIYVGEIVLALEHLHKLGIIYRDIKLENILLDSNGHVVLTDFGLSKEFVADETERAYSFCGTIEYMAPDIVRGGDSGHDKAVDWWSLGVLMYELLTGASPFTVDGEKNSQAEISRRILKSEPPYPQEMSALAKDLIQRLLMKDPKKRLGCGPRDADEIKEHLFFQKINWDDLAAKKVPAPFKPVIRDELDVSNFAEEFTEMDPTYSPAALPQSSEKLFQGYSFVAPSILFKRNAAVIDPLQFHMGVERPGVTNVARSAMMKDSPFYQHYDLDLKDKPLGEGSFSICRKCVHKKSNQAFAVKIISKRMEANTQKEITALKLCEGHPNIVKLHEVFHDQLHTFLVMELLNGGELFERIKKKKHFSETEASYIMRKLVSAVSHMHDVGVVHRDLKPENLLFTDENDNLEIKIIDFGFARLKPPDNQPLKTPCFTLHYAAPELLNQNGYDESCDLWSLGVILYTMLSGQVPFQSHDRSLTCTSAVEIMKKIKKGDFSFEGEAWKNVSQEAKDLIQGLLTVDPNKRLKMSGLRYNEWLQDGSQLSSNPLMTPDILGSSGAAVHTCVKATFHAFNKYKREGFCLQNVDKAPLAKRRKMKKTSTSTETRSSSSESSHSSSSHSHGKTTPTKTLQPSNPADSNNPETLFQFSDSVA
Sequence of Glycogen synthase kinase-3 beta (Homo sapiens) (P49841 whole entry, looked up): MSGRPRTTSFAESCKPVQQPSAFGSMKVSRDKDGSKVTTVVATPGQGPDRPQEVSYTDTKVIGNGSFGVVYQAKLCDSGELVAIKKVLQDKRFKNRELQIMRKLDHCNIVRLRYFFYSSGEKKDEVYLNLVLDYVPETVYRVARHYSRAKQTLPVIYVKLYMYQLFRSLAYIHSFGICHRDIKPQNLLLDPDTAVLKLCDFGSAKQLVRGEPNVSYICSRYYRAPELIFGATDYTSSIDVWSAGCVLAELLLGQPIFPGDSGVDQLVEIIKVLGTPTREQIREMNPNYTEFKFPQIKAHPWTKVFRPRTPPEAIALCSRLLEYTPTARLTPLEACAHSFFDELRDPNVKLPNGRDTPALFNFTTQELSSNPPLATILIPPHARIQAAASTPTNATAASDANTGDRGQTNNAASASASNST
Sequence of Serine/threonine-protein kinase Chk2 (Homo sapiens) (O96017 whole entry, the tested form may be a part): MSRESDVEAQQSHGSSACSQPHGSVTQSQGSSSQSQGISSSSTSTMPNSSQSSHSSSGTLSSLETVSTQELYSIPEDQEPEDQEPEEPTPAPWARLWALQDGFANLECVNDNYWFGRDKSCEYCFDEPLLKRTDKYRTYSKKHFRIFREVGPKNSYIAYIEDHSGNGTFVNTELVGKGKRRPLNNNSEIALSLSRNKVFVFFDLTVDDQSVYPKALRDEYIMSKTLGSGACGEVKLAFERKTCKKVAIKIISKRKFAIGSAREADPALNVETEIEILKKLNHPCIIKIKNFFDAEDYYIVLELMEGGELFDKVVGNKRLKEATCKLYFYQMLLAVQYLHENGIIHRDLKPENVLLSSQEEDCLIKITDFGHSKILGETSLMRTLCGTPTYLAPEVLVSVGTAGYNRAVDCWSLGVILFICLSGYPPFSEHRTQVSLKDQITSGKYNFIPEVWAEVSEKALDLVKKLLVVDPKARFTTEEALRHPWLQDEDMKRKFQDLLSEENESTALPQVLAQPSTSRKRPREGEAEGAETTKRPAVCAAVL
Sequence of Calcium/calmodulin-dependent protein kinase type II subunit delta (Homo sapiens) (Q13557 whole entry): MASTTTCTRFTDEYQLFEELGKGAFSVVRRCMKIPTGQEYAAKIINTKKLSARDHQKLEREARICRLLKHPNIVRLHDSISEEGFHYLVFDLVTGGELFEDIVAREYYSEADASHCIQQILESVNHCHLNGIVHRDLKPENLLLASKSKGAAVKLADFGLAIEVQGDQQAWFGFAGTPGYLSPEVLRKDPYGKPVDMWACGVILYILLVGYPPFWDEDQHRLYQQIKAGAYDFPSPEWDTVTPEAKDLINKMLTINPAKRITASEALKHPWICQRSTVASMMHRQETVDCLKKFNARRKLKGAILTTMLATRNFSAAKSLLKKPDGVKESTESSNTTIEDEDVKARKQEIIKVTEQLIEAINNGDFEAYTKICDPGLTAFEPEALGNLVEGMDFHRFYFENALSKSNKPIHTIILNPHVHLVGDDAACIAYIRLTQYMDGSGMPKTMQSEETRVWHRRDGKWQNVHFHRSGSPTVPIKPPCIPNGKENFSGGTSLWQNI

As to `C[C@H](CN(C)C)Oc1nc(Nc2cc3cccc(Cl)c3cn2)cnc1C#N`, in the assay filed under Homo sapiens, the inhibition – broadly, the drop in the measured response relative to a control, in per cent – was determined as 0%. Take `NCCc1ccc(-c2ncnc3[nH]cnc23)cc1`: the inhibition in [1] turned out to be 35%; in assay [2] it was 74%. Regarding `NCC1CCN(c2ncnc3[nH]ccc23)CC1`, the inhibition in assay [3] was 2.5%; in [4] it was 30%; in assay [5], 34%; in assay [6], 43%; in assay [7], 25%. Consider `CNCc1ccc(-c2ncnc3[nH]cnc23)cc1`, for which the inhibition in assay [8] worked out at 72.5%. On to `COC(=O)c1cnc(Nc2cnc(C#N)cn2)cc1NCC1CCNCC1`, for which the inhibition in [9] was found to be 37%.

On to `c1cnc2[nH]ccc2c1`, for which, in assay [10], the inhibition stood at 32%.
